What was measured:
[1] = system: FXR N283L mutation; assay: Reporter assay with mutated FXR; format: cell-based; details: 1 μM, Fig. 8e
Excerpt: R331M mutation was supposed to strengthen the hydrophobic interactions by displacing the corresponding residue of polar arginine to a hydrophobic methionine (Fig. 8b). Accordingly, this mutation increased the ability to be activated by avermectin ligands (Fig. 8e). For H447F mutation, the corresponding residue of histidine with a side chain of imidazole group was replaced by the nonpolar phenylalanine with a side chain of benzene ring (Fig. 8c). […] N283L mutation disrupts a key hydrogen bond between FXR and avermectin compounds (Fig. 8d).

[2] = parameters: method as in PMID 10956205, PMID 25388536, PMID 19586769; details: in rat; cited from earlier work
[3] = system: medaka eleutheroembryo; details: cited from earlier work
[4] = system: mice; parameters: method as in PMID 21632533; details: cited from earlier work
[5] = system: KK-Ay mice; assay: High-fat diet fed KK-Ay mice treated 14 days (liver histology, metabolic parameters, GTT, ITT); format: in vivo; details: KK-Ay mice, high-fat diet, i.p. once daily 14 days; avermectin analogues 1.3 mg/kg, GW4064 30 mg/kg
Protocol: To further confirm the lipid accumulation, we performed oil red O staining of the frozen liver sections (Fig. 2c).
10 weeks age KK-Ay mice and C57BL/6J, homozygous FXR deficient (FXR^–/–) mice were maintained under environmentally controlled conditions with free access to standard chow diet and water as described previously. Animal experiments were conducted in the barrier facility of the Laboratory Animal Center, Xiamen University, approved by the Institutional Animal Use and Care Committee of Xiamen University, China, and the methods were carried out in accordance with the approved guidelines. Mice were fed with high fat diet containing 60% fat, 20% protein and 20% carbohydrate (Research Diets, D12492, New Brunswick, USA), and the food intake were measured every second day. […] After 6 h fasting, mice were weighed and sacrificed. Livers were weighed and taken photos, and part of each liver was fixed in 4% paraformaldehyde. Liver histology characterization was analyzed by haematoxylin and eosin (H&E) staining with paraffin-embedded sections by standard procedures. Other tissues were collected and frozen in liquid nitrogen for use, and serums were collected to measure metabolite parameters.
Fresh liver tissues were embedded in optimum cutting temperature compound (OCT) and cryosectioned. The sections were fixed in 4% paraformaldehyde in PBS, and were stained with 0.3% oil red O according to standard procedures.
Mice treated with compounds for 10 days were fasted for 6 h with free access to water. For the glucose tolerance test (GTT), 1 g/kg of glucose was i.p. injected and blood glucose was measured with the Accu-Check Performa (Roche Applied Science, Mannheim, Germany) at 0, 30, 60, 90, 120,150 and 180 min. For the insulin tolerance test (ITT), 1 U/kg of recombinant human insulin (Novolin 30R; Novo Nordisk, Bagsvaerd, Denmark) was i.p. injected, and blood glucose was measured at 0, 30, 60, 120 and 150 min after insulin injection.
Serum glucose was analyzed using glucose oxidase method (Applygen, Beijing, China). Serum cholesterol and triglyceride were analyzed using Cholesterol Assay Kit and Triglyceride Assay Kit (Bioassay Systems, USA), respectively. Liver triglyceride was analyzed using Tissue triglyceride assay kit (Applygen, Beijing, China).

[6] = system: FXR A291W mutation; assay: Reporter assay with mutated FXR; format: cell-based; details: 1 μM, Fig. 8e

SMILES: CC(C)c1onc(-c2c(Cl)cccc2Cl)c1COc1ccc(/C=C/c2cccc(C(=O)O)c2)c(Cl)c1 [GW4064]
- transcriptional activity of N283L mutated FXR [1]: retained the ability to be activated
- t1/2 [2]: < 1 h
- hepatobiliary toxicity [3]: hepatobiliary injury
- body weight and fat effect [4]: weight gain and fat accumulation
- hepatic lipid / steatosis by H&E staining of liver sections [5]: slightly reduced the hepatic lipid
- lipid accumulation by oil red O staining of liver sections [5]: slightly reduced the lipid accumulation
- liver morphology (colour) [5]: a little fresh red
- transcriptional activity of A291W mutated FXR [6]: abolished the transcriptional activity

Source: PMC4664883, “Selective targeting of nuclear receptor FXR by avermectin analogues with therapeutic effects on nonalcoholic fatty liver disease” (Scientific Reports, 2015)
